Columns and labels:
Assay type in all cases: in vivo
Set-up in all cases: key: 5: completely killed; 4: seriously injured; 3: considerably injured; 2: somewhat injured; 1: slightly injured; 0: not injured (normally grown)
[1] = test system: hotarui (bulrush, Scirpus juncoides); experiment: Experiment 7 flooded soil treatment: hotarui; settings: evaluated 4 weeks after treatment
Description: (§1) Paddy soil (clay loam) was put into a pot so as to have a surface area of 1/15500 ares. Uniformly mixed seeds of several kinds of weeds, viz., nobie (barnyardgrass, Echinochloa spp.), broad-leaved weeds, hotarui (bulrush, Scirpus juncoides) and tamagayatsuri (small-flowered umbrellaplant, Cyperus difformis), were sown in the surface layer of the soil in each pot, and then paddy rice seedlings at the two- or three-leaved stage were transplanted into each pot to a depth of 2 cm, and water was fed into each pot so as to provide a 3 cm deep water layer on the soil surface. After 3 days, in other words at the initial stage of germination of nobie (barnyardgrass, Echinochloa spp.), a predetermined amount of a selected compound obtained in a manner analogous to Example 14 in the form of diluted aqueous solution was dropped into the water layer in each pot. After that, the pots were kept in a glass chamber to allow the paddy rice and the weeds to grow, and after the lapse of 4 weeks from the treatment with the selected compounds, the herbicidal effects and the degree of injury to the paddy rice were evaluated. The evaluation of the herbicidal effects was similarly conducted as that of Experiment 1.

[2] = test system: nobie (barnyardgrass, Echinochloa spp.); experiment: Experiment 7 flooded soil treatment: nobie; settings: evaluated 4 weeks after treatment
Description: as §1

[3] = test system: aobiyu (slender amaranth, Amaranthus viridis); experiment: Experiment 8 foliage treatment: aobiyu; settings: foliage spray of wettable powder suspension, evaluated 4 weeks after treatment
Protocol: (§2) Upon seedling stage (two- or three-leaved stage) of rice, cockspur (Panicum crus-galli), garden radish, aobiyu (slender amaranth, Amaranthus viridis) and mehishiba (henry crabgrass, Digitaria cliaris) which were grown on a cultivated soil put in pots of 1/15500 ares, a selected compound obtained in a manner analogous to Example 14, in suspended wettable powder, was sprayed to each plant. After that, the pots were kept in a glass chamber to allow each plant to grow, and after the lapse of 4 weeks from the treatment with the selected compounds the herbicidal effects were evaluated. The evaluation of the herbicidal effects was similarly conducted as to that of Experiment 1.

[4] = test system: cockspur (Panicum crus-galli); experiment: Experiment 8 foliage treatment: cockspur; settings: foliage spray of wettable powder suspension, evaluated 4 weeks after treatment
Protocol: as §2

broad-leaved weeds = experiment: Experiment 7 flooded soil treatment: broad-leaved weeds; settings: evaluated 4 weeks after treatment
Description: as §1

rice [5] = experiment: Experiment 8 foliage treatment: rice; settings: foliage spray of wettable powder suspension, evaluated 4 weeks after treatment
Protocol: as §2

paddy rice = experiment: Experiment 7 flooded soil treatment: injury to paddy rice; settings: evaluated 4 weeks after treatment
Description: as §1

[6] = test system: tamagayatsuri (small-flowered umbrellaplant, Cyperus difformis); experiment: Experiment 7 flooded soil treatment: tamagayatsuri; settings: evaluated 4 weeks after treatment
Description: as §1

garden radish [7] = experiment: Experiment 8 foliage treatment: garden radish; settings: foliage spray of wettable powder suspension, evaluated 4 weeks after treatment
Protocol: as §2

[8] = test system: mehishiba (henry crabgrass, Digitaria cliaris); experiment: Experiment 8 foliage treatment: mehishiba; settings: foliage spray of wettable powder suspension, evaluated 4 weeks after treatment
Protocol: as §2

[9] = test system: aobiyu (slender amaranth, Amaranthus viridis); experiment: Experiment 5 foliage treatment: aobiyu; settings: foliage spray of wettable powder suspension, evaluated 4 weeks after treatment
Protocol: as §2, with “11,” for “14,”, “as” for “as to”

rice [10] = experiment: Experiment 5 foliage treatment: rice; settings: foliage spray of wettable powder suspension, evaluated 4 weeks after treatment
Protocol: as §2, with “11,” for “14,”, “as” for “as to”

[11] = test system: mehishiba (henry crabgrass, Digitaria cliaris); experiment: Experiment 5 foliage treatment: mehishiba; settings: foliage spray of wettable powder suspension, evaluated 4 weeks after treatment
Protocol: as §2, with “11,” for “14,”, “as” for “as to”

garden radish [12] = experiment: Experiment 5 foliage treatment: garden radish; settings: foliage spray of wettable powder suspension, evaluated 4 weeks after treatment
Protocol: as §2, with “11,” for “14,”, “as” for “as to”

[13] = test system: cockspur (Panicum crus-galli); experiment: Experiment 2 foliage treatment: cockspur; settings: 4 weeks after treatment
Protocol: as §2, with “8,” for “14,”

[14] = test system: aobiyu (slender amaranth, Amaranthus viridis); experiment: Experiment 2 foliage treatment: aobiyu; settings: 4 weeks after treatment
Protocol: as §2, with “8,” for “14,”

[15] = test system: cockspur (Panicum crus-galli); experiment: Experiment 5 foliage treatment: cockspur; settings: foliage spray of wettable powder suspension, evaluated 4 weeks after treatment
Protocol: as §2, with “11,” for “14,”, “as” for “as to”

garden radish [16] = experiment: Experiment 2 foliage treatment: garden radish; settings: 4 weeks after treatment
Protocol: as §2, with “8,” for “14,”

rice [17] = experiment: Experiment 2 foliage treatment: rice; settings: 4 weeks after treatment
Protocol: as §2, with “8,” for “14,”

[18] = test system: mehishiba (henry crabgrass, Digitaria cliaris); experiment: Experiment 2 foliage treatment: mehishiba; settings: 4 weeks after treatment
Protocol: as §2, with “8,” for “14,”

| SMILES | Herbicidal Effect hotarui ([1]; 6.25 g/10a) | Herbicidal Effect hotarui ([1]; 12.5 g/10a) | Herbicidal Effect nobie ([2]; 6.25 g/10a) | Herbicidal Effect nobie ([2]; 12.5 g/10a) | Herbicidal Effect aobiyu ([3]; 40 g/10a) | Herbicidal Effect aobiyu ([3]; 80 g/10a) | Herbicidal Effect cockspur ([4]; 40 g/10a) | Herbicidal Effect cockspur ([4]; 80 g/10a) | Herbicidal Effect broad-leaved weed (broad-leaved weeds; 6.25 g/10a) | Herbicidal Effect broad-leaved weed (broad-leaved weeds; 12.5 g/10a) | Herbicidal Effect rice (rice [5]; 40 g/10a) | Herbicidal Effect rice (rice [5]; 80 g/10a) | Injury of Paddy (paddy rice; 6.25 g/10a) | Injury of Paddy (paddy rice; 12.5 g/10a) | Herbicidal Effect tamagayatsuri ([6]; 6.25 g/10a) | Herbicidal Effect tamagayatsuri ([6]; 12.5 g/10a) | Herbicidal Effect garden radish (garden radish [7]; 40 g/10a) | Herbicidal Effect garden radish (garden radish [7]; 80 g/10a) | Herbicidal Effect mehishiba ([8]; 40 g/10a) | Herbicidal Effect mehishiba ([8]; 80 g/10a) | further results |
| --- | --- | --- | --- | --- | --- | --- | --- | --- | --- | --- | --- | --- | --- | --- | --- | --- | --- | --- | --- | --- | --- |
| C#CC(C)Oc1cc(N(C(=O)C2=C(C(=O)OCCC)CCCC2)C(=O)c2ccsc2)c(F)cc1Cl (centres unmarked) [compound 101] | 4 | 4 | 5 | 5 | 5 | 5 | 1 | 1 | 5 | 5 | 1 | 1 | 0.5 | 1 | 5 | 5 | 5 | 5 | 1 | 1 |  |
| C#CC(C)Oc1cc(N(C(=O)C2=C(C(=O)OCCOC)CCCC2)C(=O)c2cccs2)c(F)cc1Cl (centres unmarked) [compound 94] | 5 | 5 | 5 | 5 | 5 | 5 | 1 | 1 | 5 | 5 | 1 | 1 | 0.5 | 0.5 | 5 | 5 | 5 | 5 | 1 | 1 |  |
| CCC(=O)Nc1ccc(Cl)c(Cl)c1 [Comparative agentB, Propanil, reference compound] |  |  |  |  | 5 | 5 | 1 | 1 |  |  | 0 | 0 |  |  |  |  | 1 | 3 | 0 | 1 | Herbicidal Effect aobiyu ([9]; 40 g/10a): 5; Herbicidal Effect aobiyu ([9]; 80 g/10a): 5; Herbicidal Effect rice (rice [10]; 40 g/10a): 0; Herbicidal Effect rice (rice [10]; 80 g/10a): 0; Herbicidal Effect mehishiba ([11]; 40 g/10a): 1; Herbicidal Effect mehishiba ([11]; 80 g/10a): 1; Herbicidal Effect garden radish (garden radish [12]; 40 g/10a): 3; Herbicidal Effect garden radish (garden radish [12]; 80 g/10a): 4; Herbicidal Effect cockspur ([13]; 40 g/10a): 0; Herbicidal Effect cockspur ([13]; 80 g/10a): 0; Herbicidal Effect aobiyu ([14]; 40 g/10a): 5; Herbicidal Effect aobiyu ([14]; 80 g/10a): 5; Herbicidal Effect cockspur ([15]; 40 g/10a): 0; Herbicidal Effect cockspur ([15]; 80 g/10a): 0; Herbicidal Effect garden radish (garden radish [16]; 40 g/10a): 3; Herbicidal Effect garden radish (garden radish [16]; 80 g/10a): 4; Herbicidal Effect rice (rice [17]; 40 g/10a): 0; Herbicidal Effect rice (rice [17]; 80 g/10a): 0; Herbicidal Effect mehishiba ([18]; 40 g/10a): 1; Herbicidal Effect mehishiba ([18]; 80 g/10a): 1 |
| CCCCOC(=O)CSc1cc(N(C(C)=O)C(=O)C2=C(C(=O)OCCCC)CCCC2)c(F)cc1Cl [compound 40] |  |  |  |  |  |  |  |  |  |  |  |  |  |  |  |  |  |  |  |  | Herbicidal Effect cockspur ([13]; 40 g/10a): 1; Herbicidal Effect cockspur ([13]; 80 g/10a): 1; Herbicidal Effect aobiyu ([14]; 40 g/10a): 5; Herbicidal Effect aobiyu ([14]; 80 g/10a): 5; Herbicidal Effect garden radish (garden radish [16]; 40 g/10a): 5; Herbicidal Effect garden radish (garden radish [16]; 80 g/10a): 5; Herbicidal Effect rice (rice [17]; 40 g/10a): 1; Herbicidal Effect rice (rice [17]; 80 g/10a): 1; Herbicidal Effect mehishiba ([18]; 40 g/10a): 1; Herbicidal Effect mehishiba ([18]; 80 g/10a): 1 |

Reference: patent US6337417B1, “N-phenyltetrahydrophthalamic acid derivatives, methods of producing same, and herbicides containing same as effective components” (Central Glass Co., Ltd., priority 1994, dated 2002)
